In US20230391776A1, “AMIDE OXAZOLE COMPOUND” (MEDSHINE DISCOVERY INC., priority 2020, published 2023):
Values joined by “and” are separate entries in the source; they are usually repeats but may differ in a detail not shown here. Identical values can stand only once.

Experiments:
[1] = molecular target: T1, human IRAK4 (Homo sapiens, UniProt Q9NWZ3); assay: In vitro IRAK4 kinase activity, 33P isotope-labeled kinase assay; format: biochemical
T1 construct: purchased Reaction Biology Corp
T1 sequence (Q9NWZ3 1-460): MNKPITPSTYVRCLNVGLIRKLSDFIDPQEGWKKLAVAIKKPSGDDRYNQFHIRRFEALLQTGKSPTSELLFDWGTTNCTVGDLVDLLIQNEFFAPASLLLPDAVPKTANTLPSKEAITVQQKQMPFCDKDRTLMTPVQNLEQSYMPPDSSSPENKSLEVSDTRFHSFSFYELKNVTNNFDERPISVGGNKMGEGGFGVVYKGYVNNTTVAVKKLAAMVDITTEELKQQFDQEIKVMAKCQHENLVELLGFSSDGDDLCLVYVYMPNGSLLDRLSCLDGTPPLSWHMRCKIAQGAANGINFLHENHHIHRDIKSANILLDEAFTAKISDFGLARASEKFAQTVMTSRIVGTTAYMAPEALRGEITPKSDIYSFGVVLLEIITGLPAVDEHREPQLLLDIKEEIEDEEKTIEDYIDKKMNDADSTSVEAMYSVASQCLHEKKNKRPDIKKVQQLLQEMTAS
Method: The IC50 values were determined using ^33P isotope-labeled kinase activity assay (Reaction Biology Corp) to evaluate the inhibitory ability of the tested compounds on human IRAK4.
Buffer conditions: 20 mM Hepes (pH 7.5), 10 mM MgCl2, 1 mM EGTA, 0.02% Brij35, 0.02 mg/mL BSA, 0.1 mM Na3VO4, 2 mM DTT, 1% DMSO.
Test procedure: At room temperature, the tested compound was dissolved in DMSO and a 10 mM solution was prepared for use. The substrate was dissolved in a newly prepared buffer solution, and the tested IRAK4 kinase was added thereto and mixed evenly. The DMSO solution dissolved with the tested compound was added to the above mixed evenly reaction solution using acoustic technique (Echo 550). After incubation for 15 minutes, ^33P-ATP was added to initiate the reaction. The reaction was carried out at room temperature for 120 minutes, and the reaction mixture was dropped on P81 ion exchange filter paper (Whatman #3698-915). The filter paper was washed repeatedly with 0.75% phosphoric acid solution, and the radioactivity of phosphorylated substrate residues on the filter paper was determined. The kinase activity data were expressed by comparing the kinase activity of the group containing the tested compound with the kinase activity of the blank group (only containing DMSO), and the IC50 value was obtained by curve fitting by Prism4 software (GraphPad), the experimental results were shown in Table 2.

[2] = Pharmacokinetics of rats; format: in vivo; conditions: rat, plasma, SD male rats; for Vd / AUC(0-t) / clearance / half-life: IV 1 mg/kg; for Vd: read-out: Apparent volume of distribution Vdss; for AUC(0-t): read-out: Area under the plasma concentration-time curve AUC0-24h; for clearance: read-out: Clearance rate CL; for half-life: read-out: Half-life T1/2 (converted); for bioavailability / AUC / Cmax / Tmax: PO 3 mg/kg; for AUC: read-out: Area under the plasma concentration-time curve AUC; for Cmax: read-out: Peak concentration Cmax; for Tmax: read-out: Peak time Tmax
Method: The purpose of this experiment was to study the pharmacokinetics of the tested compound in the plasma of SD male rats after intravenous injection and oral administration.
SD male rats from 7 to 10 weeks old were selected, and the dosage of intravenous and oral administration was 1 mg/kg and 3 mg/kg respectively. Rats in the gavage group fasted for at least 12 hours before administration, and feeding was resumed after administration for 4 hours. Intravenous injection group was free to eat and drink during the whole experiment.
Drug preparation operation: in the intravenous injection group, the compound was weighed and dissolved with 5% DMSO/10% Solutol/85% H2O, and a clear solution of 0.5 mg/mL was prepared by vortex, which was filtered by a 0.22 m microporous membrane for later use. In the gavage group, the compound was dissolved in 5% DMSO/10% Solutol/85% H2O, and a uniform suspension was prepared by vortex. On the day of the experiment, the animals in the intravenous group were given the corresponding compound by a single injection through the tail vein, and the dosage volume was 2 mL/kg. In the oral group, the corresponding compounds were given by single gavage, and the dosage volume was 5 mL/kg. The animals before administration were weighed, and the administration volume was calculated according to the weight. The sampling time was 0.083 (injection group), 0.25, 0.5, 1, 2, 4, 6, 8, 10 (gavage group), 24 hours. Approximately 250 μL of whole blood was collected through the jugular vein at each time point for plasma preparation for concentration determination by high performance liquid chromatography-tandem mass spectrometry (LC-MS/MS). All animals were euthanized by CO2 anesthesia after collecting PK samples at the last time point. The non-atrioventricular model of WinnonLin™ Version 6.3 (Pharsight, Mountain View, CA) pharmacokinetic software was used to process the plasma concentration, and the pharmacokinetic parameters were calculated by linear logarithmic trapezoid method.

[3] = tested on: OCI-LY3 cell line; assay: OCI-LY3 cell proliferation (CTG); format: cell-based; conditions: Homo sapiens, 72 hours
Method: The tumor cell line OCI-LY3 was used to detect the effect of the compound of the disclosure on inhibiting tumor cell proliferation in vitro.
The tumor cell line used in this experiment was provided by Nanjing Cobioer Biotechnology Co., Ltd. See Table 6 below for specific information.
The OCI-LY3 cell line was cultured in the corresponding medium at 37° C. and 5% CO2, and the logarithmic growth period cells were used for experimental planking. The cells were collected and centrifuged at 800 rpm for 5 minutes, and the culture medium was re-suspended and spread in a 96-well plate. After being cultured overnight in 37° C., 5% CO2 incubator, drugs with different concentration gradients (10 μL of prepared diluent of test compound was added) were added, and incubated in 37° C., 5% CO2 incubator for 72 hours. The cell culture plate was incubated with CTG reagent at room temperature in the dark for 30 minutes and return to room temperature. CTG solution was added into the biosafety cabinet in the dark 100 μL/well, and was shaken and mixed evenly on plate shaker in the dark for 2 minutes, and incubated at room temperature in the dark for 10 minutes. The luminous value was read and recorded with Perkin Elmer Envision instrument.
The luminous value of the blank control group was subtracted from the luminous value measured at each drug concentration, the ratio of this value to DMSO group was taken as the cell inhibition rate (%). GraphPad software was used, the logarithm of drug concentration (log drug concentration) versus inhibition rate was plotted, and the IC50 value and 95% confidence value were automatically fitted and calculated by log (inhibitor) vs. response-variable slop (four parameters) algorithm of nonlinear regression by software.

[4] = tested on: human diffuse large B lymphoma TMD8 cell subcutaneous xenograft; assay: TMD8 subcutaneous xenograft tumor model (WX009 study); format: in vivo, SCID mouse; conditions: 18th day after administration
Source text: The formula for calculating the tumor inhibition rate TGI (%)=[1−(average tumor volume at the end of administration in a treatment group-average tumor volume at the beginning of administration in the treatment group))/(average tumor volume at the end of treatment in solvent control group-average tumor volume at the beginning of treatment in solvent control group)]×100%.

[5] = tested on: human diffuse large B lymphoma TMD8 cell subcutaneous xenograft; assay: TMD8 subcutaneous xenograft tumor model (WX017 and WX027 study); conditions: 11th day after administration
Method: a) TMD8 cells were cultured in RPMI-1640 medium containing 10% FBS and maintained in a 37° C. saturated humidity incubator with 5% CO2. TMD8 cells in logarithmic period were collected, resuspended in RPMI-1640 basal medium, and Matrigel was added at 1:1, and the cell concentration was adjusted to 4×10^7/mL. Under aseptic conditions, 0.1 mL of cell suspension was inoculated under the skin of the right back of SCID mice, and the inoculation concentration was 4×10^6/0.1 mL/mouse.
When the tumor grew to a certain size, the animals with too large, too small or irregular tumor shape were excluded, and the animals with tumor volume of 108.76-188.11 mm^3 were selected. According to the tumor volume, the animals were divided into 10 groups by random block method, with 6 mice in each group, and the average tumor volume was about 152.11 mm^3. The health status and death of animals were monitored every day, and routine examinations included observing the effects of tumor growth and drug treatment on daily behaviors of animals, such as behavioral activities, food intake and water intake, weight change (weight was measured twice a week), tumor size (tumor volume was measured twice a week), appearance signs or other abnormal conditions.
The formula for calculating tumor volume (TV) was: 1/2×a×b^2, where a and b were the measured length and width of the tumor respectively. The formula for calculating the tumor inhibition rate TGI (%)=[1−(average tumor volume at the end of administration in a treatment group-average tumor volume at the beginning of administration in the treatment group))/(average tumor volume at the end of treatment in solvent control group-average tumor volume at the beginning of treatment in solvent control group)]×100%.
In this study, the experimental data were all expressed by Mean±SEM. Statistical analysis was based on the data of RTV at the end of the experiment and analyzed by IBM SPSS Statistics software. T test was used to analyze the comparison between two groups, and one-way ANOVA was used to analyze the comparison between three or more groups. If the variance was even (there was no significant difference in F value), Tukey's method was used to analyze it, and if the variance was uneven (there was significant difference in F value), Games-Howell method was used to test it. p<0.05 was deemed to a significant difference.

Row | IC50 [1] [nM] | Vd [2] [L/kg] | AUC(0-t) [2] [µM·h] | clearance [2] [mL/min/kg] | half-life [2] [min] | bioavailability [2] [%] | AUC [2] [µM·h] | Cmax [2] [µM] | Tmax [2] [min] | IC50 [3] [nM] | SMILES | TGI ([4]; 5 mg/kg BID PO) | TGI ([4]; 10 mg/kg BID PO) [%] | TGI ([4]; 20 mg/kg BID PO) [%] | TGI ([5]; 3 mg/kg BID PO) [%] | TGI ([5]; 10 mg/kg BID PO) [%] | TGI ([5]; 20 mg/kg BID PO) [%]
1 | 0.9 | 0.2 | 35.5 | 1.1 | 150 | 55 | 59.1 | 10.1 | 78 | 121 | Cc1cc(-c2nc(C(=O)Nc3cn4cc(C(C)(C)O)nc4cc3-c3ccccc3)co2)ccn1 [WX009] | 86% and 86.28% | 85.10 | 96.55 |  |  | 
2 | 0.1 | 0.8 | 5.51 | 7 | 246 | 29 | 4.77 | 1.02 | 48 | 18 | CC(C)(O)c1cn2cc(NC(=O)c3coc(-c4ccnc(N)c4)n3)c(-c3ccccc3)cc2n1 [WX017] |  |  |  | 86 | 100 | 114
3 | 0.1 | 0.3 | 8.84 | 4 | 84 | 38 | 10.2 | 4.33 | 18 | 48 | CC(C)(O)c1cn2cc(NC(=O)c3coc(-c4ccnc(N)c4F)n3)c(-c3ccccc3)cc2n1 [WX027] |  |  |  | 78 | 90 | 104
